This is an account of results in patent US20170190705A1, “Compositions and Methods for Inhibiting BMP” (THE BRIGHAM AND WOMAN'S HOSPITAL, INC., priority 2014, published 2017).

Common to all, as to assay type: biochemical
The target of one assay is T1, EPHA3 (Homo sapiens, UniProt P29320).
T1 sequence (P29320 21-983): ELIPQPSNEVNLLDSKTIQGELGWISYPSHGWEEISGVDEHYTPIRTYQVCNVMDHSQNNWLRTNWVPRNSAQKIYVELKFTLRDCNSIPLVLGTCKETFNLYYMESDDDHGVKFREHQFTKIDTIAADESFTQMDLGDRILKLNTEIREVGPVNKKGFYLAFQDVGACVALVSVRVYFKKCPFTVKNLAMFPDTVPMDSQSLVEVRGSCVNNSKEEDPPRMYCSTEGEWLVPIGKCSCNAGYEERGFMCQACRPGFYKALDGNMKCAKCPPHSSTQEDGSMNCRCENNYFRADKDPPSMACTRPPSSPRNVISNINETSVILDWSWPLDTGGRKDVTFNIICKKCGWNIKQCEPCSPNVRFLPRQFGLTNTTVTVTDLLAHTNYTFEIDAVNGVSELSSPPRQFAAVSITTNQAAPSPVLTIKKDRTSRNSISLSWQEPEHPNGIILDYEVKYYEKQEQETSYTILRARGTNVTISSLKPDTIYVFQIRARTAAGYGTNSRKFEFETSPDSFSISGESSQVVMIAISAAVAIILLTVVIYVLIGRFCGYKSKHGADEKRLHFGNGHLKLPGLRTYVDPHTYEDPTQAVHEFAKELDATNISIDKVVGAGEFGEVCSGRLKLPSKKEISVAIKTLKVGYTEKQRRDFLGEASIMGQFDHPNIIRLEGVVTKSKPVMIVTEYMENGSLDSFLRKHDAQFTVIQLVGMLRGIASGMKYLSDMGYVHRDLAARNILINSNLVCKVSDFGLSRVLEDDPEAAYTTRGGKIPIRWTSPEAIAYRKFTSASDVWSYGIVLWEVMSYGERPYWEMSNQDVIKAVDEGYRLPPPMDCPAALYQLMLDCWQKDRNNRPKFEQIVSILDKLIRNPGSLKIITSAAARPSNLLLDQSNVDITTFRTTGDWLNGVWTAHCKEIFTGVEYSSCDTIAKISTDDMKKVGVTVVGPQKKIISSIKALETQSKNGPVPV
Nature of the assay: Kinome profiling EPHA3. As to conditions: read-out: Inhibitory activity EPHA3; for inhibition at 0.1 µM: 100 nM. The protocol: (§1) . The kinome-wide selectivity was determined following the methods previously reported by Mohedas et al., ACS Chem Biol 2013, 8, 1291-1302 and Sanvitale et al., PLoS One 2013, 8, e62721.

The next assay deals with T2, TBK1 (Homo sapiens, UniProt Q9UHD2).
T2 sequence (Q9UHD2 1-729): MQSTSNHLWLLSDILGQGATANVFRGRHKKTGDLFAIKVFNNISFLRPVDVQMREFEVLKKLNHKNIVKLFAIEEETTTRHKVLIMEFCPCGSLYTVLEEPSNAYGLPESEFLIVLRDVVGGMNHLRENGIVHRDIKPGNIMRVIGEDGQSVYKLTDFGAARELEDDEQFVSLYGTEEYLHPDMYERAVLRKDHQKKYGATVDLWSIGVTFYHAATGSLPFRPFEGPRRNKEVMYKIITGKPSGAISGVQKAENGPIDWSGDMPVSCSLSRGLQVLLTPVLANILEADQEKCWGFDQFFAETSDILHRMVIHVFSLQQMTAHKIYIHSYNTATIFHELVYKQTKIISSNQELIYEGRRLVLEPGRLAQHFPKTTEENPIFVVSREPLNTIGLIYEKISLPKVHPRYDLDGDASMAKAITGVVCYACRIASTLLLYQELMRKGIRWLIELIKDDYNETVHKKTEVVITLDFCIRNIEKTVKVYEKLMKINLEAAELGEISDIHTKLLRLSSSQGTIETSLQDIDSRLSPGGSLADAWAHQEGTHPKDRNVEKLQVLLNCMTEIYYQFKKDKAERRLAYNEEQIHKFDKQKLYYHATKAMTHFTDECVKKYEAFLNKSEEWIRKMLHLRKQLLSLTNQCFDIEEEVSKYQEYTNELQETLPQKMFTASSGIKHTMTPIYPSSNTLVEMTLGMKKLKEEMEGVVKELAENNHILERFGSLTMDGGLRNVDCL
Nature of the assay: Kinome profiling TBK1. As to conditions: read-out: Inhibitory activity TBK1; for inhibition at 0.1 µM: 100 nM. On the procedure: as §1

Another assay concerns the target PTK5 (Homo sapiens, UniProt P42685). Nature of the assay: Kinome profiling PTK5. As to conditions: read-out: Inhibitory activity PTK5; for inhibition at 0.1 µM: 100 nM. On the procedure: as §1
The target of the next assay is LRRK2-G2019S (Homo sapiens, UniProt Q5S007, G2019S). Nature of the assay: Kinome profiling LRRK2-G2019S. The conditions noted are these: read-out: Inhibitory activity LRRK2-G2019S; for inhibition at 0.1 µM: 100 nM. On the procedure: as §1
The next assay has as its target TIE2 (Homo sapiens, UniProt Q02763). Nature of the assay: Kinome profiling TIE2. As to conditions: read-out: Inhibitory activity TIE2; for inhibition at 0.1 µM: 100 nM. On the procedure:
as §1

Another assay addresses KDR (Homo sapiens, UniProt P35968). Nature of the assay: Kinome profiling KDR. The conditions noted are these: read-out: Inhibitory activity KDR; for inhibition at 0.1 µM: 100 nM. On the procedure: as §1
The target in another assay is PKC-η (Homo sapiens, UniProt P24723). Nature of the assay: Kinome profiling PKC-η. The conditions noted are these: read-out: Inhibitory activity PKC-η; for inhibition at 0.1 µM: 100 nM. The protocol:
as §1

The target of another assay is CDK5/p35 (Homo sapiens, UniProt Q00535). Nature of the assay: Kinome profiling CDK5/p35. The conditions noted are these: read-out: Inhibitory activity CDK5/p35; for inhibition at 0.1 µM: 100 nM. On the procedure:
as §1

Chain of CDK5/p35 (Q00535 whole entry): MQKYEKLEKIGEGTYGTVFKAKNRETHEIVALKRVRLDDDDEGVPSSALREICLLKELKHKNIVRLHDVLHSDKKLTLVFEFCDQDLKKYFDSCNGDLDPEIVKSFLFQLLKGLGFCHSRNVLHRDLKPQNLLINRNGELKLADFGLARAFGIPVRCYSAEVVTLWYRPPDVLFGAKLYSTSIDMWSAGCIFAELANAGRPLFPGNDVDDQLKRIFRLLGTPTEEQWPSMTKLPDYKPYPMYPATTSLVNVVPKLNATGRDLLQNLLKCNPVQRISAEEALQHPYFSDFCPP
Chain of CDK5/p35 (Q15078 whole entry partner): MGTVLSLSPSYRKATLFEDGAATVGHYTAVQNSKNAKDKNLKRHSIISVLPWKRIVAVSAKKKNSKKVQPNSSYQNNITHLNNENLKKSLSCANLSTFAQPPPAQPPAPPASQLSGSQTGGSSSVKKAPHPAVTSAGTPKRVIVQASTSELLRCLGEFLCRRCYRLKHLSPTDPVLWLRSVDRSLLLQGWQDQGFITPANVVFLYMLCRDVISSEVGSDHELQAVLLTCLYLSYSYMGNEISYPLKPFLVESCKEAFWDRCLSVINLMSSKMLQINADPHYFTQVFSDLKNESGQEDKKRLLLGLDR
Chain of KDR (P35968 20-1356): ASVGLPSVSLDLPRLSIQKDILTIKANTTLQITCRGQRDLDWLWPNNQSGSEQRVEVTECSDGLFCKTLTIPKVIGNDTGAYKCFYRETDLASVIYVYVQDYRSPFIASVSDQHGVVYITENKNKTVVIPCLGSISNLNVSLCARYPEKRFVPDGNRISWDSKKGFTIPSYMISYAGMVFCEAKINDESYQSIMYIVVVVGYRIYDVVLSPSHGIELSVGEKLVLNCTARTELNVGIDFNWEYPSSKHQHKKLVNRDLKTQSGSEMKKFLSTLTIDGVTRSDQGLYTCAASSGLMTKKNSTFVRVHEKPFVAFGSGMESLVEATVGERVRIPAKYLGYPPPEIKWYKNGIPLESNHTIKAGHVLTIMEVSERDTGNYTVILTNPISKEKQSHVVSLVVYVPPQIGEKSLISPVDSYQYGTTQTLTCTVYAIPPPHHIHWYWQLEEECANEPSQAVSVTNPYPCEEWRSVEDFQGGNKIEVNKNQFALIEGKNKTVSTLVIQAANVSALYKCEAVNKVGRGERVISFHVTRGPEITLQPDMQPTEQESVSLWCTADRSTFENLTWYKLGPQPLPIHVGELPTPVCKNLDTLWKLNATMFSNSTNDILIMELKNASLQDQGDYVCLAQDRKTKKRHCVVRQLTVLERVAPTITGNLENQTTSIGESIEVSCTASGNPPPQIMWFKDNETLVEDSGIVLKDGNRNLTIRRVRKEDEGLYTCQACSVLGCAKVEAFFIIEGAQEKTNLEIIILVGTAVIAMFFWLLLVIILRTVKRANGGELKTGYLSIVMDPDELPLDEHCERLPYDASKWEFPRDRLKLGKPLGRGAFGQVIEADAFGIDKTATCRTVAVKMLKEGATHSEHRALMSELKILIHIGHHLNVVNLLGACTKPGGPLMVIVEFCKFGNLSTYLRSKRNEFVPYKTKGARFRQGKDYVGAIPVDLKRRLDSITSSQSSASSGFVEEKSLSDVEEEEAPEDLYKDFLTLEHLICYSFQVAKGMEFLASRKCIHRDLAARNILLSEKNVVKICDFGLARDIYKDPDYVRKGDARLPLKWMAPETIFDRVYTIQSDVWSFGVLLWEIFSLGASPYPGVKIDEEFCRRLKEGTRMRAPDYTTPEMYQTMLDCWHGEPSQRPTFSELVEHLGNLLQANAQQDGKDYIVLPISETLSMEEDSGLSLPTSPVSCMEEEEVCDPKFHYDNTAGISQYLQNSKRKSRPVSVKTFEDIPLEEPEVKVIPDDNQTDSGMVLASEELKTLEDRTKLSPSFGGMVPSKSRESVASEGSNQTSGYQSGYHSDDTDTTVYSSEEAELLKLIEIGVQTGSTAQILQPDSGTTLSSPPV
Chain of PTK5 (P42685 whole entry): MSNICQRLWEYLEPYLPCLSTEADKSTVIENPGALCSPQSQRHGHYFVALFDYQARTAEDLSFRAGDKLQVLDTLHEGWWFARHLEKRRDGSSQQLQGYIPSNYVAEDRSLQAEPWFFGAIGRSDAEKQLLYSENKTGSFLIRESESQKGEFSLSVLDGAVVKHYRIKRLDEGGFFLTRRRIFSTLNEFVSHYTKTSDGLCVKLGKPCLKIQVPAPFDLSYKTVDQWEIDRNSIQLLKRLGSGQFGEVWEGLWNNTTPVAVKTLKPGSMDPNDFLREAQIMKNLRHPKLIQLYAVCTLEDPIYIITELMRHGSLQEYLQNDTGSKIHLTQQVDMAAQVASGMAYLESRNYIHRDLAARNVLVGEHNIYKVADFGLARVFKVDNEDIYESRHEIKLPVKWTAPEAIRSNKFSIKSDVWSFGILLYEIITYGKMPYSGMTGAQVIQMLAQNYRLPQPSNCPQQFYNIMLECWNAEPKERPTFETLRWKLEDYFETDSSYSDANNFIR
Chain of TIE2 (Q02763 23-1124): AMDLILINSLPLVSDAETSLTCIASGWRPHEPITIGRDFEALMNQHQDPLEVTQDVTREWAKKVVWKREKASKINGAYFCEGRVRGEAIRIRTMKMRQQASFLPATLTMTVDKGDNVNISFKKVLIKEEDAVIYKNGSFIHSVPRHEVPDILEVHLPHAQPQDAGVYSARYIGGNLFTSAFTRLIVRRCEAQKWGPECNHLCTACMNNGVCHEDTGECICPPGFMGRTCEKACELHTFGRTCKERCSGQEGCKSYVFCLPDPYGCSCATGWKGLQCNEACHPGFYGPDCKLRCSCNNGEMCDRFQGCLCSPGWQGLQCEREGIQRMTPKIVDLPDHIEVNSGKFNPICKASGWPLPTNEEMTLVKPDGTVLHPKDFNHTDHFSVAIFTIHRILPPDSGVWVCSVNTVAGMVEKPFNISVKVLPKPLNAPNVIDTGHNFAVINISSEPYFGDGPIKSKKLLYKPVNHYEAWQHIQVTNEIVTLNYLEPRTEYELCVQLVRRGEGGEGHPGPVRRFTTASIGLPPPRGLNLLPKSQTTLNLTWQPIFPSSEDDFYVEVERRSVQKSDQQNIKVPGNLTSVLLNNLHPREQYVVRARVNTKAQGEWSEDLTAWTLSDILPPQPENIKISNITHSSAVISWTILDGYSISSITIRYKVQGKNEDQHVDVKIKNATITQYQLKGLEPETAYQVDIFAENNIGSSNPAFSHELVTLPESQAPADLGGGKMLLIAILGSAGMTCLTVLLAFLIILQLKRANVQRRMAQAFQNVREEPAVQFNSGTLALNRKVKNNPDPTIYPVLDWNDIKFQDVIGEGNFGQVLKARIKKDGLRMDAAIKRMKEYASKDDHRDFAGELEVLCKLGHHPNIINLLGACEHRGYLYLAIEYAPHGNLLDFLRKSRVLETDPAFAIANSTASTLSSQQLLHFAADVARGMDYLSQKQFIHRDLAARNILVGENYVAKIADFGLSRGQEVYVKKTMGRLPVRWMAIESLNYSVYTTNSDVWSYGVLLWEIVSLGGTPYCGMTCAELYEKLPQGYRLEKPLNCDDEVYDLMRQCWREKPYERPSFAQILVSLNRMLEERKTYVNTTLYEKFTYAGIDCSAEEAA
Chain of PKC-η (P24723 whole entry): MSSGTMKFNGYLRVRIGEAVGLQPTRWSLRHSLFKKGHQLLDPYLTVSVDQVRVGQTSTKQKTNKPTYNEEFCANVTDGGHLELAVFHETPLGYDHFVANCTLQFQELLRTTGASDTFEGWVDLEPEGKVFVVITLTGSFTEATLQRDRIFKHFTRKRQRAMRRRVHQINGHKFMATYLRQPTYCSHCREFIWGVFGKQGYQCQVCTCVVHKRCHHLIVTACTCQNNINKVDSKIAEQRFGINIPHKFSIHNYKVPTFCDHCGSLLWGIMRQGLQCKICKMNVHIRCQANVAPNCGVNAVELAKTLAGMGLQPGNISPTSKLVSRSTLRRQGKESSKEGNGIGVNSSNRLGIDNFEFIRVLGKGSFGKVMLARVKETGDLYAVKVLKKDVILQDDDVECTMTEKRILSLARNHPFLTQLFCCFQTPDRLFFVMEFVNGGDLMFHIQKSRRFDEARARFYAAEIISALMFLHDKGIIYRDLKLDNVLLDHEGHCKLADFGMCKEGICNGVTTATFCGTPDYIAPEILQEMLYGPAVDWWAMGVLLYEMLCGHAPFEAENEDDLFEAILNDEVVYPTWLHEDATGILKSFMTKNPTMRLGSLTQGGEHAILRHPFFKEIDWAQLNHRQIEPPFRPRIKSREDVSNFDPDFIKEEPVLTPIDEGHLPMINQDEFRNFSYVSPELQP

Turning to `COc1cc(-c2cc(-c3ccc(N4CCNCC4)cc3)cnc2C)cc(OC)c1OC` [Compound 10, 1-(4-(6-methyl-5-(3,4,5-trimethoxyphenyl)pyridin-3-yl)phenyl)piperazine], the inhibition at 0.1 µM came out at 2% at EPHA3; 1% on TBK1; 1% on PTK5; 4% at LRRK2-G2019S; 1% at TIE2; 0% at KDR. In addition, the inhibition at 0.1 µM on PKC-η was 5%; on CDK5/p35, 2%. In addition, the inhibition at 1 µM is 3% on EPHA3; 4% on TBK1; 11% on PTK5; 11% at LRRK2-G2019S; 0% on TIE2; 3% at KDR. Also, the inhibition at 1 µM amounted to 18% at PKC-η and 2% on CDK5/p35.
`COc1cc(-c2cc(-c3ccc(N4CCNCC4)cc3)cnc2N)cc(OC)c1OC` [Compound 15, 5-(4-(piperazin-1-yl)phenyl)-3-(3,4,5-trimethoxyphenyl)pyridin-2-amine]: the inhibition at 0.1 µM on EPHA3 is 8%; on TBK1, 6%; at PTK5, 17%; at LRRK2-G2019S it was 16%; on TIE2, 1%; on KDR it was 6%. In addition, the inhibition at 0.1 µM is 3% at PKC-η and 0% at CDK5/p35. Moreover, the inhibition at 1 µM on EPHA3 amounted to 31%; on TBK1, 23%; at PTK5, 66%; at LRRK2-G2019S, 57%; at TIE2, 6%; on KDR, 22%. For the same compound, the results for the inhibition at 1 µM at PKC-η and at CDK5/p35 were -1% and 0%, respectively.
